Test results: article PMC5321434, “Dihydrobenz[e][1,4]oxazepin-2(3H)-ones, a new anthelmintic chemotype immobilising whipworm and reducing infectivity in vivo” (PLoS Neglected Tropical Diseases, 2017)
Read-outs that look alike come from different tables or passages of the source.

Key:
T. trichiura = conditions: cited from earlier work; for Cure rate for infection with T. trichiura: single doses of benzimidazoles
adult T. muris = assay: Ex vivo adult T. muris automated motility assay (primary/secondary screen at 100 μM and dose-response); design: species or system Trichuris muris; conditions: for COMBINED_SCREEN_ACTIVITY: combined primary and secondary screen minus log fold change in movement, adult T. muris; for COMBINED_SCREEN_ACTIVITY / PRIMARY_SCREEN_MINUS_LOG_FOLD_CHANGE_MOVEMENT / SECONDARY_SCREEN_MINUS_LOG_FOLD_CHANGE_MOVEMENT: 100 μM; for PRIMARY_SCREEN_MINUS_LOG_FOLD_CHANGE_MOVEMENT: primary screen; for PRIMARY_SCREEN_MINUS_LOG_FOLD_CHANGE_MOVEMENT / SECONDARY_SCREEN_MINUS_LOG_FOLD_CHANGE_MOVEMENT: adult T. muris motility; for SECONDARY_SCREEN_MINUS_LOG_FOLD_CHANGE_MOVEMENT: secondary screen
Outline: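 Motility scored after 24 h (37 °C, 5% CO2) by automated imaging of pixel intensity variance, one worm per well, four weekly biological replicates. Worms came from SCID mice infected orally with 200 eggs, harvested day 35; screening at 100 μM final in RPMI-1640/antibiotics, 1% DMSO; curves fitted with four-parameter log-logistic model.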

[1] = Neutral red cytotoxicity assay; type: cell-based, mouse; conditions: mouse, CMT-93 rectal epithelial cells; resynthesised compound, neutral red cytotoxicity; read-out: ResynCytotoxicityNeutralRed(EC50uM)
Protocol: (§1) CMT-93 murine rectal epithelial cells were maintained in Dulbecco's Modified Eagle's Medium (DMEM) with 10% fetal calf serum (FCS) and 1% penicillin-streptomycin solution (10,000U/ml). Cells were plated in 96-well tissue culture plates at a density of 2x10^2 cells per well in a volume of 100μl, and cultured for 96 hours (37°C, 5% CO2) until reaching 30% confluence. The growth medium was removed and replaced with treatment media (DMEM, 1% FCS, 1% penicillin-streptomycin solution, 100μl assay volume) supplemented with vehicle alone (DMSO), test compounds or chlorpromazine, a positive control for cytotoxicity (final concentrations from 0 to 100μM). Maximum vehicle concentration for all compounds was 0.5% DMSO. Cells were cultured with the test compounds for 72 hours before cytotoxicity measurement. Following the WST-8 assay, the medium was removed, cells were washed with 100μl PBS and then 100μl of neutral red medium (DMEM, 1% FBS and 33μg/ml neutral red dye (Sigma Aldrich #N2889) were added to each well, followed by incubation for a further 2 hours. The neutral red medium was removed, cells washed with 100μl of PBS and 100μl of destain solution (50% ethanol, 49% distilled water and 1% glacial acetic acid) were added. Each assay plate was shaken rapidly for 10 minutes before absorbance was measured at 540nm using a microplate reader. This assay measures the ability of living cells to actively take up the neutral red dye. Results were analysed using GraphPad Prism and fitted using a log-logistic model.

WST-8 cytotoxicity assay = type: cell-based, mouse; conditions: mouse, CMT-93 rectal epithelial cells; resynthesised compound, WST-8 cytotoxicity; read-out: ResynCytotoxityWST-8(EC50uM)
Protocol: (§2) CMT-93 murine rectal epithelial cells were maintained in Dulbecco's Modified Eagle's Medium (DMEM) with 10% fetal calf serum (FCS) and 1% penicillin-streptomycin solution (10,000U/ml). Cells were plated in 96-well tissue culture plates at a density of 2x10^2 cells per well in a volume of 100μl, and cultured for 96 hours (37°C, 5% CO2) until reaching 30% confluence. The growth medium was removed and replaced with treatment media (DMEM, 1% FCS, 1% penicillin-streptomycin solution, 100μl assay volume) supplemented with vehicle alone (DMSO), test compounds or chlorpromazine, a positive control for cytotoxicity (final concentrations from 0 to 100μM). Maximum vehicle concentration for all compounds was 0.5% DMSO. Cells were cultured with the test compounds for 72 hours before cytotoxicity measurement. The WST-8 assay was performed using the Cell Counting Kit– 8 (Sigma Aldrich # 96992). 10μl of the CCK-8 solution was added to each well, plates were incubated for a further 2 hours, before absorbance was measured at 450nm using a microplate reader. This assay measures the ability of metabolically active cells to reduce a water-soluble formazan dye. Results were analysed using GraphPad Prism and fitted using a log-logistic model.

[2] = system: un-embryonated T. muris eggs; assay: Embryonation assay; design: species or system Trichuris muris; conditions: resynthesised compound, activity on T. muris embryonation (Yes/No)
Protocol: To assess whether the dihydrobenzoxazepinone compounds could also prevent embryonation, 100 un-embryonated eggs were treated with OX02983 and OX03153 at 100μM for 56 days in the dark at room temperature, then examined under an Olympus SD-ILK microscope for signs of embryonation.

[3] = system: embryonated T. muris eggs; assay: In vivo establishment of infection by compound-treated embryonated eggs; design: species or system Trichuris muris; conditions: for ResynActivityTmurisEggInfectivity: resynthesised compound, activity on T. muris egg infectivity (Yes/No)
Protocol: 100 infective embryonated eggs were incubated with water, water plus DMSO vehicle, or test compounds at a final concentration of 100μM for 14 days at room temperature. Eggs were then washed, re-suspended in water and 30 eggs given to a mouse via oral gavage. At day 15 post-infection, mice were culled and the number of worms present in the caecae and colon was counted. One data point was excluded: a water control individual mouse where there were technical difficulties with the oral gavage leading to the mouse regurgitating some of the T. muris eggs. It was ear marked at day of gavage and removed from the analysis.
We collected data using the same experimental design on different occasions, these are referred to as batches. Data were obtained from three batches (DMSO and water controls, batches [A,B,C]) or two batches (OX02983 [A,C], OX03153 [B,C]) with the total number of mice used, n, as follows: DMSO: 14, water: 16, OX02983: 10, OX03153: 12. The data were analysed by 2-way ANOVA (worms ~ treatment + batch + treatment * batch). There was no significant interaction effect (P = 0.14) or effect of batch (P = 0.47). We therefore combined the data from the three batches. […] We then conducted a post-hoc test using Tukey’s honest significant difference test.

T. muris [4] = conditions: associated with cuticular damage; cited from earlier work
T. muris L4 larvae = system: T. muris L4 larvae; design: method as in PMID 21889548; conditions: maximum concentration tested 200μg/ml or 229μM; cited from earlier work
T. muris L1 larvae = system: T. muris L1 larvae; design: method as in PMID 23433224; conditions: cited from earlier work
Ascaris = system: Ascaris; design: method as in PMID 18430913; conditions: annual treatment; cited from earlier work
T. muris [5] = conditions: associated with damage to nematode cuticle; cited from earlier work
[6] = system: CMT-93 murine rectal epithelial cells; assay: Neutral red cytotoxicity assay; type: cell-based, mouse; conditions: CMT-93 cells, 72 hours, maximum tested concentration 100μM, n = 8, 95% confidence interval in parentheses
Protocol: as §1

[7] = system: CMT-93 murine rectal epithelial cells; assay: WST-8 cytotoxicity assay; type: cell-based, mouse; conditions: CMT-93 cells, 72 hours, maximum tested concentration 100μM, n = 8, 95% confidence interval in parentheses
Protocol: as §2

L3/L4 and adult T. muris = system: L3/L4 and adult T. muris; design: method as in PMID 25261877; conditions: 200μg/ml (678μM); cited from earlier work
[8] = Trichuris muris, resynthesised compound, adult T. muris paralysis, read-out: ResynActivityTmurisAdultParalysis(EC50uM)

## c1ccc([C@H]2CN3CCSC3=N2)cc1 [Levamisole, reference compound]
T. trichiura; single dose, no reference given
  Single-dose cure rate, trichiuriasis: 9%
Adult T. muris; Trichuris muris, single adult worms, 24 hours incubation, automated motility assay, EC50 ± standard error, n = 5 (OX03144 n = 10), read-out: EC50, attenuation of ex vivo T. muris adult motility
  EC50: 8 µM

## Cc1ccc(CN2C(=O)COCc3cc(Br)ccc32)cc1 [Compound 4]
[1]
  EC50 at 72 h: 47 µM
WST-8 cytotoxicity assay
  EC50 at 72 h: 63 µM
Adult T. muris; [8]
  EC50: 35 µM
Adult T. muris
  COMBINED_SCREEN_ACTIVITY: 11.5841
  PRIMARY_SCREEN_MINUS_LOG_FOLD_CHANGE_MOVEMENT: 10.5493
  SECONDARY_SCREEN_MINUS_LOG_FOLD_CHANGE_MOVEMENT: 12.6188

## CN1CCCN=C1/C=C/c1cccc(O)c1.O=C(O)c1cc2ccccc2c(Cc2c(O)c(C(=O)O)cc3ccccc23)c1O [oxantel pamoate]
T. trichiura; children, optimal dose, dose-ranging study
  Single-dose cure rate, T. trichiura: 60%

## O=C1COCc2cc(-c3cccnc3)ccc2N1Cc1ccc(C(F)(F)F)cc1 [Compound 3]
[1]
  EC50 at 72 h: 60 µM
WST-8 cytotoxicity assay
  EC50 at 72 h: > 100 µM
Adult T. muris; [8]
  EC50: 26 µM
Adult T. muris
  COMBINED_SCREEN_ACTIVITY: 11.4716
  PRIMARY_SCREEN_MINUS_LOG_FOLD_CHANGE_MOVEMENT: 10.3243
  SECONDARY_SCREEN_MINUS_LOG_FOLD_CHANGE_MOVEMENT: 12.6188

## Cc1ccc(CN2C(=O)COCc3cc(-c4cccnc4)ccc32)cc1 [Compound 5]
[1]
  EC50 at 72 h: > 100 µM
[2]
  ResynActivityTmurisEmbryonation: No
[3]
  ResynActivityTmurisEggInfectivity: No
WST-8 cytotoxicity assay
  EC50 at 72 h: > 100 µM
Adult T. muris; [8]
  EC50: 57 µM
Adult T. muris
  COMBINED_SCREEN_ACTIVITY: 10.5493
  PRIMARY_SCREEN_MINUS_LOG_FOLD_CHANGE_MOVEMENT: 10.5493

## C/C=C/c1cc(OC)c2c(c1)OCO2 [isomyristicin]
T. muris [4]
  Activity against T. muris: activity against T. muris

## Ivermectin
T. muris L4 larvae
  Activity against T. muris L4 larvae: not active
T. muris L1 larvae; maximum concentration tested 50μg/ml or 57μM
  Activity against T. muris L1 larvae: not active

## O=c1cc(-c2ccc(O)c(O)c2)oc2cc(O)cc(O)c12 [luteolin]
T. muris [4]
  Activity against T. muris: activity against T. muris

## CCCSc1ccc2nc(NC(=O)OC)[nH]c2c1 [albendazole]
T. trichiura
  Cure rate for infection with T. trichiura: 28%
Ascaris
  Cure rate, Ascaris: up to 95%

## ficin
T. muris [5]
  Effect on motility of T. muris parasites in vitro: rapidly reduce motility

## Cc1ccc(CN2C(=O)COCc3cc(-c4ccncc4)ccc32)cc1 [Compound 1]
[1]
  EC50 at 72 h: > 100 µM
[2]
  ResynActivityTmurisEmbryonation: No
[3]
  ResynActivityTmurisEggInfectivity: Yes
WST-8 cytotoxicity assay
  EC50 at 72 h: > 100 µM
Adult T. muris; [8]
  EC50: 50 µM
Adult T. muris
  COMBINED_SCREEN_ACTIVITY: 8.615
  PRIMARY_SCREEN_MINUS_LOG_FOLD_CHANGE_MOVEMENT: 10.6993
  SECONDARY_SCREEN_MINUS_LOG_FOLD_CHANGE_MOVEMENT: 6.531

## COc1c2ccoc2cc2oc(=O)ccc12 [bergapten]
T. muris [4]
  Activity against T. muris: activity against T. muris

## O=C1COCc2cc(-c3cccnc3)ccc2N1CC1CCCCC1 [Compound 2]
[1]
  EC50 at 72 h: > 100 µM
WST-8 cytotoxicity assay
  EC50 at 72 h: > 100 µM
Adult T. muris; [8]
  EC50: 52 µM
Adult T. muris
  COMBINED_SCREEN_ACTIVITY: 11.5091
  PRIMARY_SCREEN_MINUS_LOG_FOLD_CHANGE_MOVEMENT: 10.3993
  SECONDARY_SCREEN_MINUS_LOG_FOLD_CHANGE_MOVEMENT: 12.6188

## 1-(4-Methylbenzyl)-7-(pyridin-4-yl)-1,5-dihydrobenzo[e][1,4]oxazepin-2(3H)-one [OX03153]
[6]
  EC50: > 100 µM
[3]; eggs soaked 14 days at 100μM, washed, 30 eggs by oral gavage to mice, worms counted day 15, versus DMSO control
  Reduction of infectivity in vivo of treated embryonated eggs: not active
[7]
  EC50: > 100 µM
Adult T. muris; values of Fig 5 shown for comparison, read-out: EC50 in adult Trichuris paralysis assay
  EC50: 57 µM

## COC(=O)Nc1nc2ccc(C(=O)c3ccccc3)cc2[nH]1 [Mebendazole]
L3/L4 and adult T. muris
  Activity against L3/L4 and adult T. muris: active
T. trichiura
  Cure rate for infection with T. trichiura: 36%
Ascaris
  Cure rate, Ascaris: up to 95%
T. muris L1 larvae; maximum concentration tested 50μg/ml or 169μM
  Activity against T. muris L1 larvae: not active

B1: papain (protein, UniProt P00784 134-345, looked up)
Papain: IPEYVDWRQKGAVTPVKNQGSCGSCWAFSAVVTIEGIIKIRTGNLNEYSEQELLDCDRRSYGCNGGYPWSALQLVAQYGIHYRNTYPYEGVQRYCRSREKGPYAAKTDGVRQVQPYNEGALLYSIANQPVSVVLEAAGKDFQLYRGGIFVGPCGNKVDHAVAAVGYGPNYILIKNSWGTGWGENGYIRIKRGTGNSYGVCGLYTSSFYPVKN
notes: purified protease
T. muris [5]
  Effect on motility of T. muris parasites in vitro: rapidly reduce motility
